From patent US8084018B2, “Methods for imaging dopamine transporter level” (Alseres Pharmaceuticals, Inc., priority 2007, dated 2011)
Where “and” joins values, the source holds several entries; their conditions need not be identical. Identical values can stand only once.

Molecular target: T1, dopamine transporter (Homo sapiens, UniProt Q01959)
T1 construct: dynamic SPECT in Parkinson's subjects and similarly aged healthy control subjects; from tissue; host or cells: striatum (caudate and putamen) of living subjects, imaged in vivo
Assay: 123I Altropane dynamic SPECT imaging of striatal dopamine transporter in Parkinson's disease and healthy control subjects
Assay type: in vivo
Settings: for Mean % test/retest difference: 15 PD subjects; for Total striatal binding ratio, Ratio (3-6): individual PD scans (paired test/retest), mean of scans 3-6, about 30 min from about 15 min post injection; for Peak Striatal:Occipital Ratio (peak SBR): single scan with highest uptake, 8 mCi i.v.
From the text: The following example summarizes single photon emission computed tomographic (SPECT) image acquisition, analysis methods and results for Parkinson's disease research participants and healthy controls participating in an ^123I Altropane SPECT imaging study. The experiment is an open label study evaluating time-activity curves and striatal dopamine transporter occupancy over the first hour post injection of ^123I Altropane using temporally well-resolved dynamic SPECT in Parkinson's subjects and similarly aged healthy control subjects. In addition, for the PD subjects, a second injection and scan is performed on each subject on a separate test days to evaluate the test/retest reproducibility data for both visual and quantitative analyses.
Fifteen idiopathic Parkinson's disease subjects are recruited through local advertising and word-of-mouth for enrollment in the study. Imaging is performed at Molecular NeuroImaging, LLC in New Haven, Conn., USA. ^123I Altropane is studied under the auspices of a physician-sponsored IND # 76,024, Dr. J. Seibyl physician sponsor using test article provided by MDS Nordion, Inc (Vancouver, BC, Canada). All subjects are provided informed consent prior to any study procedures. All fifteen subjects completed two separate injection and SPECT scan sessions with approximately 296 mBq (8 mCi) of ^123I Altropane. Subjects undergo motor ratings using the Unified Parkinson's Disease Rating Scale (UPDRS) following overnight period without anti-Parkinson medication administered by a movement disorder specialist. No PD subjects are terminated prior to achieving the study endpoint.
Twelve healthy control subjects are recruited for participation in a single scan session with ^123I Altropane using the identical SPECT image acquisition protocol as the PD subjects. Healthy subjects are evaluated by a movement disorder specialist to confirm the absence of neurologic illness.
SPECT scans are acquired for 60 minutes following the intravenous injection with 296 mBq (8.0 mCi) of ^123I Altropane. A series of dynamic SPECT scans are obtained as five scans at 6 minutes per acquisition followed by three scans at 10 minutes per acquisition. The subject remain in the camera for the duration of the acquisition. Each SPECT study is acquired on a Philips PRISM 3000XP triple-headed SPECT camera (Cleveland, Ohio, USA) fitted with fan-beam collimators. Each head rotates 360 degrees, sampling every 3 degrees for a total of 120 raw projection images per head. Projection data were collected in a 128×128 matrix within a symmetric energy window centered at 159 kEv (+/−10%).
Data are re-constructed using filtered back projection and a simple ramp filter followed by a post hoc (3-D) standardized low pass filter. Attenuation correction was performed applying a Chang 0 correction and a mu of 0.11 cm^−1 using a standard or custom automated software package. Regions of interest (ROIs) are placed in the 3-head data with individual ROI sampling of the left and right caudate and putamen and an occipital background region. The ROIs were then applied to all images in the injection session (total of 24=8 time points×3 head conditions (1, 1&2, 1&2&3). To check for head movement within each scan session, five external skin fiducial markers containing 1 μCi of ^123I were place along the canthomeatal line (2 right side, 3 left side) prior to each SPECT scan. Total counts within the ROI, total volume, and count density (counts/voxel) were extracted from each scan and logged in a data spreadsheet for determination of striatal uptake ratios (SBR) defined as the density of counts (counts per voxel per minute) in the striatal region divided by the density of counts in the occipital background region. The mean striatal SBR scores were calculated as the mean of the left and right caudate and putamen SBR scores. Since sampling in striatal subregions used the identical size ROI, there was equal contribution from left and right caudate and putamen to the mean SBR. […]

T1 sequence (Q01959 whole entry): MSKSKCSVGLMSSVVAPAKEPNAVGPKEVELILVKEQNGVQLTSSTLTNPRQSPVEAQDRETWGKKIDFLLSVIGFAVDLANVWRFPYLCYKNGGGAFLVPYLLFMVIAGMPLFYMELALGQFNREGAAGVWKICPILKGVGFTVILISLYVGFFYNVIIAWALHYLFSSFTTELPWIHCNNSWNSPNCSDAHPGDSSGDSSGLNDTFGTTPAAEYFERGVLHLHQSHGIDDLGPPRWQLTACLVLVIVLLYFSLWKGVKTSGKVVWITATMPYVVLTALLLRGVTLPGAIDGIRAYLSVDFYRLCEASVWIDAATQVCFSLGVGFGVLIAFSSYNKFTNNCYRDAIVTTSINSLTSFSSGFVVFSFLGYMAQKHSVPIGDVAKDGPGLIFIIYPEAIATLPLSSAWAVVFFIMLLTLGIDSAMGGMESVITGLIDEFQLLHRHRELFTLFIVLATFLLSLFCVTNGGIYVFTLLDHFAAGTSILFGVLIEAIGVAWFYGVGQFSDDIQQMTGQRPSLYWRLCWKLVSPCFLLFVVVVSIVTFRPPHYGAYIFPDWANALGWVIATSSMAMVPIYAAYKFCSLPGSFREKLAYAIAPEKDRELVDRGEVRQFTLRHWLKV

COC(=O)C1C(c2ccc(F)cc2)CC2CCC1N2C/C=C/I (stereo not drawn) [123I Altropane, 2β-carbomethoxy-3β-(4′-flurophenyl)-N-(3-iodo-E-allyl) nortropane]
Mean % test/retest difference (1 head): 4.94%
Mean % test/retest difference (2 heads): 5.11%
Mean % test/retest difference (3 heads): 5.14%
time post injection of relative stability of binding ratios (a PD and a control subject, FIG. 3): about 15 minutes
time post injection by which washout rates from striatum and occipital background are similar (stable striatal binding ratio) (all subjects): 20 to 30 min
time of peak striatal count densities post-injection (controls and PD subjects, bolus injection): 10 min
Total striatal binding ratio, Ratio (3-6) (1 head): 1.29 (4×) and 1.23 and 1.30 (2×) and 1.26 (3×) and 1.25 (3×) and 1.22 (2×) and 1.37 (2×) and 1.40 and 1.48 and 1.20 (2×) and 1.16 and 1.32 and 1.35 and 1.21 (2×) and 1.12 and 1.28 and 1.17 and 1.24
Total striatal binding ratio, Ratio (3-6) (2 heads): 1.29 and 1.27 (3×) and 1.35 and 1.37 and 1.31 and 1.32 (4×) and 1.30 and 1.36 and 1.43 and 1.47 and 1.60 and 1.25 and 1.21 and 1.19 and 1.38 (2×) and 1.40 and 1.24 (2×) and 1.12 and 1.26 and 1.33 (2×) and 1.20 and 1.45
Total striatal binding ratio, Ratio (3-6) (3 heads): 1.32 and 1.30 (2×) and 1.39 and 1.41 and 1.33 and 1.36 (2×) and 1.35 (2×) and 1.38 and 1.45 and 1.56 and 1.70 and 1.37 (2×) and 1.28 and 1.23 and 1.20 and 1.42 (2×) and 1.44 and 1.26 and 1.15 and 1.29 and 1.31 and 1.22 and 1.50 and 1.40 and 1.27
Peak Striatal:Occipital Ratio (peak SBR) (individual PD subjects, 1 head reconstruction): 1.29 (2×) and 1.24 (2×) and 1.22 and 1.35 and 1.41 (2×) and 1.52 and 1.43 and 1.26 (2×) and 1.32 and 1.33 (2×)
Peak Striatal:Occipital Ratio (peak SBR) (individual PD subjects, 2 head reconstruction): 1.28 (2×) and 1.27 (2×) and 1.25 and 1.41 and 1.46 and 1.66 and 1.53 and 1.26 and 1.36 and 1.32 and 1.43 and 1.37 and 1.39
Peak Striatal:Occipital Ratio (peak SBR) (individual PD subjects, 3 head reconstruction): 1.30 (2×) and 1.25 and 1.44 (2×) and 1.74 and 1.60 and 1.33 and 1.34 and 1.45 (2×) and 1.35 and 1.39 and 1.28 and 1.43
Peak Striatal:Occipital Ratio (peak SBR) (individual healthy controls, 1 head reconstruction): 1.49 and 1.57 and 1.79 and 1.47 and 1.56 and 1.63 and 1.64 and 1.86 and 1.52 and 1.50 and 1.66 and 1.51
Peak Striatal:Occipital Ratio (peak SBR) (individual healthy controls, 2 head reconstruction): 1.66 and 1.67 and 1.95 and 1.62 and 1.68 and 1.79 and 1.77 and 2.10 and 1.59 and 1.55 and 1.84 and 1.61
Peak Striatal:Occipital Ratio (peak SBR) (individual healthy controls, 3 head reconstruction): 1.81 (2×) and 1.79 and 2.06 and 1.69 and 1.90 and 1.93 and 2.30 and 1.71 and 1.68 and 1.86 and 1.77
mean SBR (peak Striatal:Occipital Ratio) (mean of 12 healthy controls, 1 head): 1.60
mean SBR (peak Striatal:Occipital Ratio) (mean of 12 healthy controls, 2 head): 1.74
mean SBR (peak Striatal:Occipital Ratio) (mean of 12 healthy controls, 3 head): 1.86
mean SBR (peak Striatal:Occipital Ratio) (mean of 15 PD subjects, 1 head): 1.33
mean SBR (peak Striatal:Occipital Ratio) (mean of 15 PD subjects, 2 head): 1.37
mean SBR (peak Striatal:Occipital Ratio) (mean of 15 PD subjects, 3 head): 1.41
elimination from brain (most subjects, striatal and occipital regions): rapid elimination
time of peak SBR post injection (one and two head scenarios): ≥ 15 min
